# In US7205004B2, “Herbal composition for treatment of neuronal injuries and neuronal degeneration, methods to prepare the same and uses thereof” (priority 2000, dated 2007):
# Legend:
# Assay type in all cases: in vivo
# mice [1] = settings: mice n = 15; Bu-Nao-Gao oral 4 g/Kg daily, cyclophosphomide 0.03 g/kg i.m. every other day
# Method: Mice were given Bu-Nao-Gao (oral at 4 g/Kg daily), or cyclophosphomide (0.03 g/kg, intramuscularly every other day) or saline (oral, daily). On day 3, mice were given 0.02 ml of 7% DNCB subcutaneously on the back, and were boosted three days later in the same way. 9 days later, 0.02 ml of 1% DNCB was applied to the left ear. This area was removed by a ear puncher of 9 mm diameter and the extent of ear swelling represents the extent of delayed-type hypersensitivity (for results, see Table 6).
# mice [2] = test: Effects on the weight of immune organs; settings: mice n = 15, 7 days; Bu-Nao-Gao 4 g/Kg orally, hydrocortisone 50 mg/Kg intramuscularly
# Method: Mice were randomly distributed, and were given Bu-Nao-Gao (4 g/Kg) orally, or hydrocortison (50 mg/Kg) or saline intramuscularly, for seven days. 24 hours after the last administration, mice were sacrificed.
# mice [3] = test: Effects on antibody production in mice (sheep erythrocyte immunization); settings: mice n = 15, immunized with 10% sheep erythrocytes day 2, measured day 8; Bu-Nao-Gao 4 g/Kg orally, hydrocortisone 50 mg/Kg i.m., 7 days
# Method: Mice were randomly distributed, and were given Bu-Nao-Gao (4 g/Kg) orally, or hydrocortison (50 mg/Kg) or saline intramuscularly, for seven days. On day 2, they were immunized with 10% sheep erythrocytes intra-peritoneally. On day 8, erythrocyte agglutination as well as cell lysis were measured respectively.
Compound,DNCB (extent of swolleness) (mice [1]),"Index of immune organ (mg/g X +/− SD), Spleen (mice [2]) [mg/g]","Index of immune organ (mg/g X +/− SD), thymus (mice [2]) [mg/g]",Agglutinin (33) (HC50) (mice [3]),Erythorcytolysin (32) (mice [3])
"O=P1(N(CCCl)CCCl)NCCCO1 (centres unmarked) [cyclo-phosphamidum, cyclophosphomide]",12.26 +/− 8.8,–,–,–,–
C[C@]12CCC(=O)C=C1CC[C@@H]1[C@@H]2[C@@H](O)C[C@@]2(C)[C@H]1CC[C@]2(O)C(=O)CO [Hydrocortisone],–,2.66 ± 0.40,1.37 ± 0.26,126.7 +/− 19.3,37.5 +/− 4.2
